Patent US6288101A, “Imidazoles with serotonin receptor binding activity” (Virginia Commonwealth University, priority 1999, dated 2001)

Biological target: T1, 5-HT1D -like receptor (Oryctolagus cuniculus, UniProt P49144)
T1 construct: Ring segments of the vein (4-5 mm in length) were cut and the endothelium gently removed; from tissue; host or cells: saphenous vein rings, endothelium removed, male New Zealand White rabbit
Experiment: 5-HT1D-like receptor agonist activity: contraction of the rabbit isolated saphenous vein
Design: species or system rabbit (New Zealand White)
Details: rabbit isolated saphenous vein rings, endothelium removed, 37° C., pH 7.4; prazosin, idazoxan and indomethacin (1 μM each) present; read-out: EC50 (concentration of the compound which causes 50% of the maximum contraction effected by it)
Description: The saphenous veins from both the left and right side were cleaned of fat and connective tissue and placed in Krebs solution (118 mM NaCl, 11 mM glucose, 25 mM NaHCO3, 4.7 mM KCl, 2.5 mM CaCl2.2H2 O, 1.2 mM KH2 PO4, and 1.2 mM MgSO4.7H2 O. Ring segments of the vein (4-5 mm in length) were cut and the endothelium gently removed. The segments were mounted in 10 mL baths containing Krebs buffer and were constantly aerated with 95% oxygen/5% carbon dioxide and maintained at 37° C. and pH 7.4 in order to record the isometric tension. A resting tension of 2.5 g was applied and the tissues allowed to equilibrate for 90 minutes, with washing every 15-20 minutes. After the equilibrium period, the rings were depolarized by the addition of two aliquots of KCl (80 mM final concentration) separated by a 20 minute washing period. The tissues were then exposed to prazosin, idazoxan and indomethacin (all 1 μM final concentration) for 30 minutes in order to exclude the actions of α1 - and α2 -adrenergic receptors and prostaglandin receptors respectively. […] Responses were calculated as a percentage of the maximal contraction evoked by 80 mM KCl. Only one compound was tested per preparation.
EC50 represents the concentration of the compound which causes 50% of the maximum contraction effected by it.

T1 sequence (P49144 whole entry): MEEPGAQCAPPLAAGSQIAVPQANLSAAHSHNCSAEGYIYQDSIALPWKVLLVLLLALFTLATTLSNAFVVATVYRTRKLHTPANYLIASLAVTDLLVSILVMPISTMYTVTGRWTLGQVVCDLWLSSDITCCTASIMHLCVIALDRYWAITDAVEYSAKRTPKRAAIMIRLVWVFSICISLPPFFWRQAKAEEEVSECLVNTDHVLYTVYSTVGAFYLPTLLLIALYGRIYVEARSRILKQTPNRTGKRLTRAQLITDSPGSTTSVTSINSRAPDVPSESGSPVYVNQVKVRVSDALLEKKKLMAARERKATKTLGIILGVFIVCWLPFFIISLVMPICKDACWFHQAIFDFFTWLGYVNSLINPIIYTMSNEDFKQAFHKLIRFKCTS

`Cc1cc(Br)cc(C)c1Cc1ncc[nH]1` was tested, and the EC50 was 9.3 µM.
Work on `Cc1cc(C(C)(C)C)cc(C)c1Cc1ncc[nH]1` yielded an EC50 of 0.13 µM.
